Data reported in article PMC5479551, “Development of a range of fluorescent reagentless biosensors for ATP, based on malonyl-coenzyme A synthetase” (PLoS ONE, 2017).

Key:
Parent (Rho-MatB) = molecular target: T1, Parent (Rho-MatB) (Rhodopseudomonas palustris, UniProt Q6ND88, C106A/K488A/Q457C/R286C); test: Fluorescence titration (excitation 553 nm, emission 571 nm) of 0.5 µM fully purified Rho-MatB with ADP in 50 mM Hepes pH 7.0, 100 mM NaCl, 10 mM MgCl2, 0.3 mg/ml BSA, 20°C, quadratic binding fit.
T1 construct: N-terminal His6-tag, expressed in E. coli; two tetramethylrhodamines (5-IATR) on introduced cysteines
T1 sequence (Q6ND88 entry or part of it C106A/R286C/Q457C/K488A): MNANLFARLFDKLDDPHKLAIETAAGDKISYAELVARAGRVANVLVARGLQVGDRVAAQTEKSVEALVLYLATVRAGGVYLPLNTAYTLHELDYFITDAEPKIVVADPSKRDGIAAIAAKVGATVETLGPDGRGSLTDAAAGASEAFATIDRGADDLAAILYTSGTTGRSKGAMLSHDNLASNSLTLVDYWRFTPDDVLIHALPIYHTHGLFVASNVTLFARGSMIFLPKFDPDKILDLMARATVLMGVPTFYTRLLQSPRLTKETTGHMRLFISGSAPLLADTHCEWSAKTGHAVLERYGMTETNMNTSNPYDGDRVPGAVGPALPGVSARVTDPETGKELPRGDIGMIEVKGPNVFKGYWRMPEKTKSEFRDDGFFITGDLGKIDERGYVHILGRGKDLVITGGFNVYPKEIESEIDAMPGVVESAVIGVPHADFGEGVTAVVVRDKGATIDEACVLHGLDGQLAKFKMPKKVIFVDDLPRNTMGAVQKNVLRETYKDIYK
Text: (§1) Data from titrations to measure nucleotide binding were corrected for dilution and analyzed with a quadratic binding curve using Grafit software: F=Fmin+(Fmax−Fmin)×(Kd+L+P−(Kd+L+P)^2−4×P×L)/2×P where P and L are the total concentrations of protein and ligand, respectively, Kd is the dissociation constant, and Fmin and Fmax are the fluorescence intensities of the free and ligand- bound protein, respectively.
(§2) Fig 2 Nucleotide affinity for variants of Rho-MatB. Titration of ATP (circles) and ADP (triangles) to (A) 0.5 µM Rho-MatB T167A, (B) 0.5 μM Rho-MatB T303A; (C) 0.5 μM Rho-MatB S170A. Measurements are shown for one representative experiment and were in 50 mM Hepes pH 7.0, 100 mM NaCl, 10 mM MgCl2, 0.3 mg ml^-1 bovine serum albumin at 20°C. Excitation was at 553 nm, emission at 571 nm. The dissociation constants and fluorescence ratios were obtained using a quadratic binding equation (see Methods) and are listed in Table 2. The drop lines are to indicate the dissociation constants. Data are normalized to the intensity in the absence of nucleotide.
(§3) The affinity for ATP and ADP was determined by measuring the fluorescence at different concentrations of the nucleotide (Fig 2A and 2B). Both variants show similar fluorescent changes with ATP compared to the parent Rho-MatB, but the dissociation constants (Kd) are much higher (Table 2). In contrast, the affinity of ADP was much less affected by the mutations, remaining very weak (Table 2). The change in ATP affinity presumably reflects the importance of hydrogen-bonding interactions with the triphosphate, decreased by mutating to alanine.

S170A Rho-MatB = molecular target: T2, S170A Rho-MatB (Rhodopseudomonas palustris, UniProt Q6ND88, C106A/K488A/Q457C/R286C/S170A); test: as above
T2 construct: His6-tag, Rho-MatB background, two tetramethylrhodamines (5-IATR)
T2 sequence (Q6ND88 entry or part of it C106A/S170A/R286C/Q457C/K488A): as the sequence (Q6ND88 entry or part of it C106A/R286C/Q457C/K488A) above, with S170A counted along it
Text: as §1, §2, §3

T303A Rho-MatB = molecular target: T3, T303A Rho-MatB (Rhodopseudomonas palustris, UniProt Q6ND88, C106A/K488A/Q457C/R286C/T303A); test: as above
T3 construct: His6-tag, Rho-MatB background, two tetramethylrhodamines (5-IATR)
T3 sequence (Q6ND88 entry or part of it C106A/R286C/T303A/Q457C/K488A): as the sequence (Q6ND88 entry or part of it C106A/R286C/Q457C/K488A) above, with T303A counted along it
Text: as §1, §2, §3

T167A Rho-MatB = molecular target: T4, T167A Rho-MatB (Rhodopseudomonas palustris, UniProt Q6ND88, C106A/K488A/Q457C/R286C/T167A); test: as above
T4 construct: His6-tag, Rho-MatB background, two tetramethylrhodamines (5-IATR)
T4 sequence (Q6ND88 entry or part of it C106A/T167A/R286C/Q457C/K488A): as the sequence (Q6ND88 entry or part of it C106A/R286C/Q457C/K488A) above, with T167A counted along it
Text: as §1, §2, §3

pyruvate kinase = molecular target: T5, pyruvate kinase (Oryctolagus cuniculus, UniProt P11974); test: Steady-state pyruvate kinase assay using T303A variant ATP biosensor; format: biochemical, rabbit; conditions: 50 mM HEPES pH 7.2, 100 mM KCl, 10 mM MgCl2, 25°C; 500 μM phosphoenolpyruvate; 1 μM T303A rho-MatB as ATP sensor; read-out: Km for ADP
T5 construct: pyruvate kinase (rabbit muscle from Sigma); purchased Sigma; host or cells: rabbit muscle (tissue-derived)
T5 sequence (P11974 whole entry): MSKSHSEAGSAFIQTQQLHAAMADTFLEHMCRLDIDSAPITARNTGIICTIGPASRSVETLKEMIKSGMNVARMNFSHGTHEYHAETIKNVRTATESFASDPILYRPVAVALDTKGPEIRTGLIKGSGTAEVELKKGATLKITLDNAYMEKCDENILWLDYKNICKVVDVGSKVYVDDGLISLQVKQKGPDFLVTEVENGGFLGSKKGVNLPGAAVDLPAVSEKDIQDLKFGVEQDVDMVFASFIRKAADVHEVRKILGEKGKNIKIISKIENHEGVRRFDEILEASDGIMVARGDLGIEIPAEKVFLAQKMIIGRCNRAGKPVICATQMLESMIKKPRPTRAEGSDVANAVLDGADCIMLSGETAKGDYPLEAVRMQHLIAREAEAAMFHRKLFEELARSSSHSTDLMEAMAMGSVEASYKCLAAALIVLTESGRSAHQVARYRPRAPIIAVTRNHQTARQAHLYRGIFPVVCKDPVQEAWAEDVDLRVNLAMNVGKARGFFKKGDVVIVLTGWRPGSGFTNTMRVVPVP
Method: Steady-state activity measurements of pyruvate kinase (rabbit muscle from Sigma) were obtained using fluorescence on a CLARIOstar microplate reader (BMG Labtech). Assays were set up in 100 μl or 40 μl using 96-well using 384-well polystyrene microplates (low-protein-binding, Corning, USA) respectively.
We show one type of steady-state assay using a weak-binding variant, namely T303A, and a well understood enzyme system. This variant was used to measure the Km for ADP with pyruvate kinase (Fig 7). This measurement would not have been possible with the original reagent, as it requires measurements with hundreds of micromolar ADP. The assay measured formation of ATP as a function of time and made use of calibrations of the fluorescence signal at 0 and 500 μM ADP.
Fig 7 Test assay, measurement of the Km of ADP with pyruvate kinase using T303A variant ATP biosensor. The assay was run in multiwell format in 50 mM HEPES buffer pH 7.2, 100 mM KCl, 10 mM MgCl2, 0.3 mg ml^-1 bovine serum albumin at 25°C. The assay components were 500 μM phosphoenolpyruvate, 0.005 unit ml^-1 pyruvate kinase, 1 μM T303A rho-MatB and the micromolar concentrations of ADP shown on the inset panel for an illustrative set of traces. The data are shown as ATP production rates, using calibrations done at 0–20 μM ATP at 0 μM ADP and with ADP to make 500 μM total nucleotide concentration. […]

Row | Compound | Kd (Parent (Rho-MatB)) [µM] | Kd (S170A Rho-MatB) [µM] | Kd (T303A Rho-MatB) [µM] | Kd (T167A Rho-MatB) [µM] | Km (pyruvate kinase) [µM]
1 | Nc1ncnc2c1ncn2[C@@H]1O[C@H](COP(=O)(O)OP(=O)(O)O)[C@@H](O)[C@H]1O [ADP, adenosine 5'-diphosphate] | 428 ± 50 | 887 ± 25 | 1840 ± 114 | 900 ± 28 | –
2 | Nc1ncnc2c1ncn2[C@@H]1O[C@H](COP(=O)(O)OP(=O)(O)O)[C@@H](O)[C@H]1O [ADP] | – | – | – | – | 56 ± 4
